Source: patent US6270780A, “Cosmetic compositions containing resveratrol” (Chesebrough-Pond's USA Co., division of Conopco, priority 1998, dated 2001)
Where two headings read alike, the source gives them in different places.

Test system: Transglutaminase (TG-1)
Assay: ELISA based TG-1 assay, differentiation of keratinocytes
Type: cell-based, human
Description: Methodology for Transglutaminase Measurement
During the process of terminal differentiation in the epidermis, a 15 nm thick layer of protein, known as the cornified envelope (CE) is formed on the inner surface of the cell periphery. The CE is composed of numerous distinct proteins which have been cross-linked together by the formation of N-((-glutamyl) lysine isodipeptide bonds catalyzed by the action of at least two different transglutaminases expressed in the epidermis. Transglutaminase (TG-1) is expressed in abundance in the differentiated layers of the epidermis, especially the granular layer, but is absent in the undifferentiated basal epidermis. Thus, TG-1 is a useful marker of epidermal keratinocyte differentiation with high TG-1 levels indicating a more differentiated state. An ELISA based TG-1 assay, using a TG-1 antibody, was used to assess the state of differentiation of the cultured keratinocytes in the examples that follow.
The level of TG-1 was measured as follows. Keratinocytes were obtained as described in Example 2. For the experiment, about 30,000 cells were plated into each well of 6 well plates and grown for five days, until the cells reach about 20-30% confluence. 2 ml/well of fresh KGM were added daily with 2 μl of 2-50 mM resveratrol in DMSO for 3 days. Control wells also received 2 μl of DMSO. After 3 days of treatment, cells were washed twice with PBS and placed in freezer for 2 hours. Cells were then thawed for 2 hours. DNA content of the cells were quantitated by using the DNA binding flurophore, bis-benzimidazole (Hoechst 33258) and measuring the specific fluorescence of the DNA-bound flurophore at 450 nm (excitation at 360 nm).
TG-1 levels of the cells in the wells were determined using the TG-1 specific monoclonal antibody (BC1) (first antibody) (obtained from Amersham Life Sciences) and using a peroxidase labeled rabbit antimouse IgG fragment (second antibody). The plates were blocked by 5% nonfat milk in TBS (Tris buffered saline, 0.01 M Tris, 0.150 M sodium chloride, pH 8.0) for one hour followed by 2 hour incubation with the first antibody (1:4,000 fold dilution) in 1% milk/TBS at room temperature. After rinsing the plates three times with 1% milk/TBS containing 0.05% Tween 20, the plates were incubated with 1:4000 dilution of the second antibody at room temperature for two hours. The plates were rinsed three times with 1% milk/TBS/Tween and three times with TBS. Color was developed by incubation with o-phenylene diamine and hydrogen peroxide. The absorbance was read at 492 nm on a Ultrospec 3000 spectrophotometer (Pharmacia Biotech) and TG-1 levels were calculated as Abs/DNA fluorescence. The mean±standard deviation of at least 3 separate wells were used for calculation and statistical analysis of the data. Values were expressed as absorbance for TG-1 per arbitrary unit of DNA fluorescence of triplicate wells±standard deviation. Results were also expressed as % of control.

Oc1ccc(/C=C/c2cc(O)cc(O)c2)cc1 [Resveratrol, 3,4'5-stilbenetriol]
transglutaminase expression of keratinocytes vs control (Experiment 1, 10 μM): not significantly different from control
TG-1 levels/μg DNA (Experiment 1, 10 μM, 3 days): 8.49 ± 1.77 /μg DNA
TG-1 levels/μg DNA (Experiment 1, 25 μM, 3 days): 10.92 ± 2.29 /μg DNA
TG-1 levels/μg DNA (Experiment 1, 50 μM, 3 days): 22.2 ± 1.50 /μg DNA
TG-1 levels/μg DNA (Experiment 2, 2 μM, 3 days): 3.42 ± 0.42 /μg DNA
TG-1 levels/μg DNA (Experiment 2, 5 μM, 3 days): 3.51 ± 0.41 /μg DNA
TG-1 levels/μg DNA (Experiment 2, 10 μM, 3 days): 3.61 ± 0.17 /μg DNA
TG-1 levels/μg DNA (Experiment 2, 25 μM, 3 days): 4.69 ± 0.21 /μg DNA
TG-1 levels/μg DNA (Experiment 2, 50 μM, 3 days): 4.65 ± 0.46 /μg DNA
keratinocyte differentiation (Experiment 2, all concentrations of 2 μM and higher): significantly increased keratinocyte differentiation
activity at 10 µM (Homo sapiens, Keratinocyte, 72 h, Experiment 1, 10 μM, 3 days, read-out: TG-1 levels, % of control): 126%
activity at 25 µM (Homo sapiens, Keratinocyte, 72 h, Experiment 1, 25 μM, 3 days, read-out: TG-1 levels, % of control): 162%
activity at 50 µM (Homo sapiens, Keratinocyte, 72 h, Experiment 1, 50 μM, 3 days, read-out: TG-1 levels, % of control): 329%
activity at 2 µM (Homo sapiens, Keratinocyte, 72 h, Experiment 2, 2 μM, 3 days, read-out: TG-1 levels, % of control): 179%
activity at 5 µM (Homo sapiens, Keratinocyte, 72 h, Experiment 2, 5 μM, 3 days, read-out: TG-1 levels, % of control): 184%
activity at 10 µM (Homo sapiens, Keratinocyte, 72 h, Experiment 2, 10 μM, 3 days, read-out: TG-1 levels, % of control): 189%
activity at 25 µM (Homo sapiens, Keratinocyte, 72 h, Experiment 2, 25 μM, 3 days, read-out: TG-1 levels, % of control): 246%
activity at 50 µM (Homo sapiens, Keratinocyte, 72 h, Experiment 2, 50 μM, 3 days, read-out: TG-1 levels, % of control): 243%
transglutaminase expression of keratinocytes (all other concentrations): significantly increased transglutaminase expression of keratinocytes
